These results are taken from patent publication US20110105434A1, “2-AMINO PURINE DERIVATIVES AND THEIR USE AS ANTI-HERPETIC AGENTS” (priority 2007, published 2011).

Data set [1] deals with patient with rheumatoid arthritis. Put plainly: rheumatoid arthritis signs or symptoms. Conditions: 300 mg/kg per day. It counts as in vivo, human. As to the method: Another effect of anti-herpes drugs was elimination of the signs or symptoms of rheumatoid arthritis. A patient experienced 100% reduction in joint swelling, pain, inflammation and clicks at 300 mg/kg of famciclovir per day.

The test system of data set [2] is patient with Prinzmetal's angina. Put plainly: Prinzmetal's angina chest pain and blood pressure. The data set is classed as in vivo, human. Conditions: 300 mg/kg per day. As to the method:
Another effect of the treatment of this invention was reduction in chest pain. A patient with an autoimmune disease was experiencing severe chest pains or Prinzmetal's angina—a coronary artery spasm and associated cardiac ischemia. After taking high doses of anti-herpes drugs, but no drugs specifically for the heart, the patient reported a marked reduction in the symptoms of Prinzmetal's angina, specifically, 95% reduction in pain at 300 mg/kg of famciclovir per day.

The subject of data set [3] is herpes-infected patient with kyphosis. Description: kyphosis. The data set is classed as in vivo, human. The note with it: 300 mg/kg per day. As to the method: Another condition observed in a herpes-infected patient was kyphosis or abnormal curvature of the upper spine. Generally, kyphosis is thought to result from habitual poor posture. However, kyphosis is sometimes caused by abnormal contraction of some spinal muscles. When the patient received 300 mg/kg of famciclovir per day, their posture improved as the contracted spinal muscles relaxed.

The test system of data set [4] is patient with muscle spasms, pain and inability to sleep. Put plainly: muscle spasms, pain, sleep and restless leg. The note with it: 300 mg/kg per day. It counts as in vivo, human. As to the method: Severe sleep disturbance can be caused by inability to relax the axial muscles due to hypertonus. It is not appreciated by those without hypertonus of the muscles, but it is necessary for the somatic muscles to relax to a predetermined level, before sleep will commence. Hypertonus can prevent that relaxation and prevent sleep. One patient was unable to achieve normal REM sleep for over 15 years, when their autoimmune disease was treated with the current treatments, which are essentially ineffective. However, this same patient was restored to essentially […] on the doses of this invention. Additionally this patient suffered from severe “restless leg syndrome” which is caused by the same disease conditions of the sympathetic chain as causes all above. […] At the levels of '114 these benefits were only slightly apparent, with the doses of this application normal REM sleep is restored. And, if the drug levels of the 2-aminopurines are allowed to drop for only a few hours the inability to sleep, and the severe restless leg return to the afflicted. […] The relationship of the appearance or suppression of the signs or symptoms of sleep disturbance to the onboard drug level is consistent and dramatic. […] The patient was administered 300 mg/kg of famciclovir per day and experienced relief of 90% of the spasms and pain. […]

Data set [5] has as its system patient with irritable bowel syndrome. Put plainly: irritable bowel syndrome signs or symptoms. It counts as in vivo, human. From the text: (§1) This example sets forth the treatment of a patient with signs or symptoms of disease associated with reduced blood flow to an organ or tissue (correlated with hypertonicity of the associated blood vessels) using high doses of famciclovir, a compound of Formula (II) where B is H and each of R1 and R2 is CH3C(O)—, at a level and under conditions as explained below.
(§2) A patient weighing about 100 kg having multiple signs or symptoms of autoimmune disease had been ingesting famciclovir for several years at about 10 g per day taken 4 times daily during a 24 hour period. While the subject's condition was tolerable, they were in a regular state of pain in the joints and had other signs or symptoms discussed below.
The patient also presented with irritable bowel syndrome (IBS) signs or symptoms, such as severe distention, cramps and pain spasms. After increasing intake of famciclovir to a maintenance level of 300 mg/kg per day, the patient experienced a dramatic improvement. […] The distended waist circumference was reduced from 44 inches to 38 inches over a period of days, and pain was about 90% relieved. Since the patient experienced no weight loss, the reduction in distention was due to the relief of bowel spasms.

The conditions of data set [6]: approved oral dose range; cited from earlier work.
The subject of data set [7] is patients with autoimmune disease. Put plainly: pain and signs or symptoms of autoimmune disease in general. It counts as in vivo, human. The note with it: very high levels. How it is done: After the drugs take effect, usually in less than an hour, the pain is at least 50% reduced or disappears. This is a particularly surprising and useful discovery.
In the past, it was observed, that a patient that stopped increasing the dosage of the anti-herpes drugs at the threshold of pain rarely achieves the relief of the autoimmune signs or symptoms. Patients who exceed the pain threshold and take over 20 g per day (over 200 mg/kg/day) start experiencing a reduction in autoimmune symptoms for prolonged periods of time. The pain in such patients eventually disappears. Patients who take even higher doses, 30 g per day for a 100 kg subject (300 mg/kg) and higher, experience a continuous relief of at least 90% of all of their autoimmune signs or symptoms, including pain, as long as they continue taking the drug.
Most importantly, the present invention teaches alleviation of pain associated with autoimmune disease. The prior art, including the '114 patent, teaches to use pain as guide when adjusting the maximum dose of the anti-herpes drug. However, it is now disclosed that a patient should tolerate the pain during the initial period of taking extremely high doses of anti-herpes drugs. After the drugs take effect, usually in less than an hour, the pain is at least 50% reduced or disappears. […]

The test system of data set [8] is patient with urination problems. Put plainly: urination problems (benign prostate hypertrophy symptoms). It counts as in vivo, human. The note with it: 300 mg/kg per day, taken in 6 hour increments. As to the method:
The same high doses of famciclovir also relieved urination problems in a patient, such as hesitancy, weak stream and retention. These signs or symptoms are usually associated with benign prostate hypertrophy. However, without taking any prostate-specific drugs, but famciclovir alone, the patient achieved substantial relief of these symptoms. The signs or symptoms disappeared or were at least 90% relieved at 300 mg/kg of famciclovir per day, taken in 6 hour increments. The symptoms returned in about 10 hours when the drug was taken every 10 hours instead of every six hours. When the drug was taken every 6 hours, the symptoms, once again, disappeared.

The subject of data set [9] is patient with Raynaud's syndrome. Description: Raynaud's syndrome signs or symptoms. It counts as in vivo, human. The note with it: 300 mg/kg per day in four equal doses over 24 hours.
Text: as §1, §2
The patient also presented signs or symptoms of Raynaud's syndrome, which involves marked or severe vasoconstriction and ischemia in the extremities, usually fingers and toes. As a result, the patient often experienced extreme pain, cold, discoloration, lack of sensation and weakness in the affected parts. […] The signs or symptoms returned when the frequency of taking the drug was lowered from once every 6 hours to once every 10 hours.

Consider `CC(=O)OCC(CCn1cnc2cnc(N)nc21)COC(C)=O` [famciclovir, 2-amino-9-(4-acetoxy-3-acetoxymethylbut-1-yl)purine], for which the “reduction in joint swelling, pain, inflammation and clicks” value in data set [1] is 100%. For the same molecule, the “reduction in pain of Prinzmetal's angina” value in [2] is 95%. Moreover, in data set [2] (blood pressure lowering medication reduced to a minimum), the elevated blood pressure result is on record as “no hypertension”. The posture in kyphosis entry in [3] is on record as “improved”. In data set [4], the “relief of the spasms and pain” value came out at 90%; the “severe bowel and back pain and spasms relieved” value is “about 80%”. For the same molecule, the IBS pain relieved result in [5] (300 mg/kg per day) is reported as “about 90%”. Also, the distended waist circumference in [5] (300 mg/kg per day, over a period of days, reduced from 44 inches) is 38 inches. Further, the IBS pain spasms entry in data set [5] (maintenance level of 300 mg/kg per day) is reported as “dramatically decreased”. The “absorption (dose linearity)” value in [6] is on record as “linear”. Besides, in data set [7], the “pain associated with autoimmune disease” value is listed as “immediate relief”. Moreover, the “urination signs or symptoms (hesitancy, weak stream, retention) relieved” value in [8] was “at least 90%”. Further, the “Raynaud's signs or symptoms (pain, cold, discoloration, lack of sensation, weakness)” value in data set [9] is given as “dramatically abated”.
